The TGI is the concentration giving total growth inhibition. Read a high TGI as less potent growth arrest. The term GI50 denotes the concentration giving 50% growth inhibition.

Each structure is given as a SMILES string. Values joined by “and” are separate entries in the source; they are usually repeats but may differ in a detail not shown here. Identical values can stand only once.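 Assay format: 96-well plates, 48-hour exposure. Abbreviation: GI50, concentration required for 50% inhibition of growth. TGI is the concentration that stops growth completely.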

Drawing on PubChem BioAssay (NCI), this text covers TGI and GI50 for 28 compounds.

The first assay relates to MDA-MB-435. In words: DTP human tumour cell line panel, 48 h.
`CC[C@H]1CN2CCc3cc(OC)c(OC)cc3[C@@H]2C[C@@H]1C[C@H]1NCCc2c1[nH]c1ccc(O)cc21` came in with a TGI of 0.261 µM.

`O=C(O)CC(NC(=O)CP(=O)(O)O)C(=O)O` (stereo unspecified): the GI50 is 48.8 µM and the TGI is > 10000 µM.

As for `C=C1C(=O)O[C@H]2[C@H]1CC/C(COC(=O)/C=C\C(=O)NCc1ccc(Cn3c(=O)sn(CCCC)c3=O)cc1)=C\CC[C@@]1(C)O[C@@H]21`, the GI50 is 0.513 µM and the TGI worked out at 1.77 µM.

Another assay deals with OVCAR-3 ovarian. Description: DTP human tumour cell line panel, 48 h.
As to `CC(C)C(=O)NS(=O)(=O)c1ccccc1`, the TGI is > 100 µM.

As for `COC1(OC)CC2C(=O)N(Cc3ccccc3)C1C=C2S(=O)(=O)c1ccccc1` (stereo unspecified), the TGI was 28 µM.

Consider `CC(=O)[O][Ga]([Br])[O]C(C)=O`, for which the GI50 is > 100 µM and the total growth inhibition concentration (TGI) was > 100 µM.

`COc1cc2c(OC)cc1CSCc1sc(C)c(c1Br)CSC2`: the total growth inhibition concentration (TGI) is > 100 µM.

For `CC(C)N(C(=O)C12C3C4C1(I)C1C2C3(I)C41C(=O)N(C(C)C)C(C)C)C(C)C` (stereo unspecified), the TGI was > 100 µM.

Compound `Cc1cccc(C)c1NC(=O)C(=O)C(C(=O)c1ccccc1-c1ccccc1)C1OC(=O)c2ccccc21` (stereo unspecified) came in with a TGI of 38 µM.

As for `CC1COC(C)(C)P(=O)(c2ccccc2)C1` (stereo unspecified), the TGI was > 100 µM.

As to `Cc1ccc(S(=O)(=O)c2ccc(N)cc2)cc1`, the concentration for total growth inhibition (TGI) was > 100 µM.

As to `CCOP(=O)(OCC)OC1C=CC2CCC1C2` (stereo unspecified), the total growth inhibition concentration (TGI) is > 100 µM.

For the compound `COC(=O)[C@H]1C=C[C@@H](C)n2c(=O)c3cc4ccccc4cc3c(=O)n21`, the TGI is > 100 µM.

In the case of `COc1cc(C=O)c(-c2cc(OC)c(OC)cc2C=O)cc1OC`, the TGI was > 100 µM.

As for `N#CC(C(=O)C(=O)Nc1ccc(Cl)cc1)c1ccccc1` (stereo unspecified), the TGI is > 100 µM.

As to `COc1c[c]([Hg][O]C(C)=O)c(OC)c(NC(=O)CC(C)=O)[c]1[Hg][O]C(C)=O`, the TGI is > 21.1 µM.

Regarding `COC(=O)/C=C1\CCC(C)O1` (stereo unspecified), the TGI is > 100 µM.

In the case of `O=C(/C=C/c1ccccc1Cl)NC1C=Nc2ccc([N+](=O)[O-])cc2NC1` (stereo unspecified), the TGI was > 100 µM.

Turning to `CC[C@H]1CN2CCc3cc(OC)c(OC)cc3[C@@H]2C[C@@H]1C[C@H]1NCCc2c1[nH]c1ccc(O)cc21`, the GI50 is 0.0156 µM; the TGI was 0.0622 µM and 0.089 µM and 0.25 µM.

As for `CCCO/S(=N\S(=O)(=O)c1ccccc1)c1ccccc1[N+](=O)[O-]` (stereo unspecified), the TGI is > 100 µM.

Consider `Cc1ccc(C)c(N=C2NC(=O)C(CC(=O)Nc3ccc(Cl)cc3Cl)S2)c1` (stereo unspecified), for which the TGI was > 100 µM.

Consider `C/C(CC(=O)Nc1cccc(Cl)c1C)=N\NC(=O)c1ccncc1`, for which the TGI was > 100 µM.

Regarding `Cc1cc(NS(=O)(=O)c2ccc(Nc3c4ccccc4nc4c(C(=O)N5CCN(CCO)CC5)ccc(Cl)c34)cc2)no1`, the concentration for total growth inhibition (TGI) is > 100 µM.

Turning to `O=C(O)CC(NC(=O)CP(=O)(O)O)C(=O)O` (stereo unspecified), the TGI was > 10000 µM.

For `Cc1nc([N+](=O)[O-])cn1CC(=N)N`, the TGI is > 100 µM.

Consider `COC(=O)/C=C/c1c(CC=C(C)C)ncn1C`, for which the TGI turned out to be 59 µM.

For `O=S(=O)(c1ccccc1)C1CN2OC1(S(=O)(=O)c1ccccc1)CC2c1ccc(Br)cc1` (stereo unspecified), the concentration for total growth inhibition (TGI) was > 100 µM.

Regarding `CC(=O)O[C@H]1CCC2[C@@H]3CCC4Nc5[nH]ncc5C[C@]4(C)C3CC[C@@]21C` (stereo partly specified), the TGI is > 100 µM.

Compound `Cc1cc(C)nc(NS(=O)(=O)c2ccc(NC(=O)c3cccc4c(Nc5ccc(S(N)(=O)=O)cc5)c5ccccc5nc34)cc2)n1` showed a TGI of 27.6 µM.

As for `Cc1cc(S(=O)(=O)O)c(NC(=O)C(=O)Cc2cc(=O)oc3cc(O)ccc23)cc1Cl`, the TGI was > 100 µM.

In the case of `C=C1C(=O)O[C@H]2[C@H]1CC/C(COC(=O)/C=C\C(=O)NCc1ccc(Cn3c(=O)sn(CCCC)c3=O)cc1)=C\CC[C@@]1(C)O[C@@H]21`, the concentration for 50% growth inhibition (GI50) is 0.229 µM and the TGI amounted to 0.589 µM.

In the next assay the test system is SR leukemia. In words: DTP human tumour cell line panel, 48 h.
Consider `CC(C)C(=O)NS(=O)(=O)c1ccccc1`, for which the TGI is > 100 µM.

As for `COC1(OC)CC2C(=O)N(Cc3ccccc3)C1C=C2S(=O)(=O)c1ccccc1` (stereo unspecified), the TGI came out at 46.3 µM.

As for `CC(=O)[O][Ga]([Br])[O]C(C)=O`, the GI50 was > 100 µM and the concentration for total growth inhibition (TGI) was > 100 µM.

With `COc1cc2c(OC)cc1CSCc1sc(C)c(c1Br)CSC2`, the TGI is > 100 µM.

Consider `CC1COC(C)(C)P(=O)(c2ccccc2)C1` (stereo unspecified), for which the TGI is > 100 µM.

In the case of `CCOP(=O)(OCC)OC1C=CC2CCC1C2` (stereo unspecified), the TGI is 58.7 µM.

Consider `COC(=O)[C@H]1C=C[C@@H](C)n2c(=O)c3cc4ccccc4cc3c(=O)n21`, for which the TGI is > 100 µM.

The compound `COc1cc(C=O)c(-c2cc(OC)c(OC)cc2C=O)cc1OC` displayed a TGI of 88.9 µM.

Take `N#CC(C(=O)C(=O)Nc1ccc(Cl)cc1)c1ccccc1` (stereo unspecified): the TGI was > 100 µM.

For `COc1c[c]([Hg][O]C(C)=O)c(OC)c(NC(=O)CC(C)=O)[c]1[Hg][O]C(C)=O`, the GI50 is 2.59 µM and the TGI is > 100 µM.

Consider `O=C(/C=C/c1ccccc1Cl)NC1C=Nc2ccc([N+](=O)[O-])cc2NC1` (stereo unspecified), for which the TGI was determined as 96.2 µM.

As to `CC[C@H]1CN2CCc3cc(OC)c(OC)cc3[C@@H]2C[C@@H]1C[C@H]1NCCc2c1[nH]c1ccc(O)cc21`, the GI50 was 0.0152 µM and 0.0333 µM.

For the compound `CCCO/S(=N\S(=O)(=O)c1ccccc1)c1ccccc1[N+](=O)[O-]` (stereo unspecified), the TGI is > 100 µM.

For the compound `Cc1nc([N+](=O)[O-])cn1CC(=N)N`, the TGI is > 100 µM.

Regarding `COC(=O)/C=C/c1c(CC=C(C)C)ncn1C`, the TGI was > 100 µM.

For `Cc1cc(S(=O)(=O)O)c(NC(=O)C(=O)Cc2cc(=O)oc3cc(O)ccc23)cc1Cl`, the TGI was > 100 µM.

Regarding `C=C1C(=O)O[C@H]2[C@H]1CC/C(COC(=O)/C=C\C(=O)NCc1ccc(Cn3c(=O)sn(CCCC)c3=O)cc1)=C\CC[C@@]1(C)O[C@@H]21`, the GI50 was 0.288 µM and the total growth inhibition concentration (TGI) was > 100 µM.

In another assay the test system is LXFL 529 NSCLC. Description: DTP human tumour cell line panel, 48 h.
In the case of `CC(C)C(=O)NS(=O)(=O)c1ccccc1`, the TGI was > 100 µM.

The compound `COC1(OC)CC2C(=O)N(Cc3ccccc3)C1C=C2S(=O)(=O)c1ccccc1` (stereo unspecified) gave a concentration for total growth inhibition (TGI) of 34.2 µM.

`CC(=O)[O][Ga]([Br])[O]C(C)=O`: the GI50 is > 100 µM and the TGI was > 100 µM.

With `COc1cc2c(OC)cc1CSCc1sc(C)c(c1Br)CSC2`, the concentration for total growth inhibition (TGI) was > 100 µM.

On to `CC(C)N(C(=O)C12C3C4C1(I)C1C2C3(I)C41C(=O)N(C(C)C)C(C)C)C(C)C` (stereo unspecified), for which the TGI is > 100 µM.

The compound `Cc1cccc(C)c1NC(=O)C(=O)C(C(=O)c1ccccc1-c1ccccc1)C1OC(=O)c2ccccc21` (stereo unspecified) came in with a TGI of 27.5 µM. That is a double-digit micromolar value.

`CC1COC(C)(C)P(=O)(c2ccccc2)C1` (stereo unspecified): the TGI was > 100 µM.

Consider `Cc1ccc(S(=O)(=O)c2ccc(N)cc2)cc1`, for which the TGI was > 100 µM.

For the compound `CCOP(=O)(OCC)OC1C=CC2CCC1C2` (stereo unspecified), the TGI is > 100 µM.
